For orientation: Ki means the dissociation constant of the complex between target and ligand, obtained from inhibition or displacement. For orientation: Km means the substrate concentration at which the rate is half of its maximum.

The text below walks through data of patent publication US20150159167A1, “Plants Tolerant to HPPD Inhibitor Herbicides” (Bayer CropScience AG, priority 2009, published 2015).

In test [1] the test system is Synechococcus sp. HPPD "SEQ ID No. 5". Description: HPPD activity in presence of HPPD inhibitors (pI50, % inhibition). The settings on record: for percentage of inhibition: 5.0 × 10^−6 M inhibitor, compared to activity in absence of inhibitor; for pI50: 2 mM HPP, 3 minutes incubation. The test is classed as biochemical. The text has this: (§1) In this content, pI50-value means the log value of the concentration of inhibitor necessary to inhibit 50% of the enzyme activity in molar concentration.

Another test relates to wild type tobacco plants. Description: Glasshouse response to bicyclopyrone, injury classes. Type of test: in vivo, Nicotiana tabacum. The settings on record: 100 g AI/ha, 7 DAT; line WT. The text has this: (§2) Seeds of wild type tobacco plants and T1 tobacco plants carrying the gene from Synechococcus sp. FMP38e coding for HPPD were sown on MS media (Murashige and Skoog 1964) supplemented with […] kanamycin. After 4 weeks, rooted green plantlets were transferred to soil and grown for 3 weeks in the glasshouse as described above then sprayed with a mixture containing bicyclopyrone (100 g AI/ha), ammonium sulfate and methyl ester raps oil. The plants were classified in two categories based on the phenotype developed in response to the herbicide seven days after the treatment. […] In this case, only plants containing at least one T-DNA were exposed to the herbicidal treatment.

Test [2] relates to T1 tobacco plants carrying FMP38e. Described as above. Type of test: in vivo, Nicotiana tabacum. The following applies: 100 g AI/ha, 7 DAT.
From the text: as §2

The target in test [3] is Synechococcus sp. HPPD "SEQ ID No. 5". Description: HPLC assay of HPPD activity, in vitro kinetic properties. Type of test: biochemical. The procedure:
Km, Vmax, and kcat values for different HPPD enzyme preparations and Ki, K1=Kon, and K−1=Koff for different HPPD inhibitors were determined using a HPLC assay for measurements of HPPD activity. […] All assays were started by the addition of HPPD enzyme to the assay mixture and stopped at a series of times between 0 and 240 s by addition of 200 μl of the reaction mixture to reaction assay tubes containing 20 μl 10% perchloric acid. Precipitated protein was pelleted by a 5 minute centrifugation at 10,000 g. […] A standard set of concentrations of HGA were used to provide a standard curve in order to calibrate the 292 nm absorbance of the HGA peak versus HGA concentration.
For Km and Vmax value determinations the initial rates of the HPPD reaction at different substrate concentrations were determined from plots of HGA formed versus time and fitted to the Michaelis-Menten equation for unireactant enzymes using the ID Business Solutions Ltd. (idbs.com) XLfit software suite. For the determination of Ki, K1=Kon, and K=−1=Koff values the time-courses of the HPPD reaction at different inhibitor concentrations were fitted to the equations for Mechanism A, competitive inhibition, for tight-binding inhibitors (Cha, S. (1975) Tight-binding inhibitors-I. Kinetic behaviour. Biochemical Pharmacology 24, 2177-2185) using the ID Business Solutions Ltd. XLfit software suite
(§3) In below given table 1, “Km” (Michaelis-Menten constant) means the kinetic parameter that is used to characterise an enzyme, and it is defined as the concentration of substrate that permits half maximal rate of the reaction. Km is further defined as the substrate concentration at which the reaction rate reaches half of its maximum value (Vmax/2) where Vmax has the meaning of being the maximum velocity of the reaction.
(§4) Kon=K1 equals the association rate constant of the […] binding and Koff=K−1 equals the rate constant of the enzyme-inhibitor complex dissociation. Ki defines the inhibition constant.

The target of test [4] is T1, Arabidopsis thaliana HPPD "SEQ ID No. 10" (Arabidopsis thaliana, UniProt P93836).
T1 construct: Preparation of Synechococcus sp; Ala + 6xHis (N); made in house; host or cells: E. coli K-12 BL21 (pQE30-AtHPPD)
T1 sequence (P93836 with tags, fused parts or gaps): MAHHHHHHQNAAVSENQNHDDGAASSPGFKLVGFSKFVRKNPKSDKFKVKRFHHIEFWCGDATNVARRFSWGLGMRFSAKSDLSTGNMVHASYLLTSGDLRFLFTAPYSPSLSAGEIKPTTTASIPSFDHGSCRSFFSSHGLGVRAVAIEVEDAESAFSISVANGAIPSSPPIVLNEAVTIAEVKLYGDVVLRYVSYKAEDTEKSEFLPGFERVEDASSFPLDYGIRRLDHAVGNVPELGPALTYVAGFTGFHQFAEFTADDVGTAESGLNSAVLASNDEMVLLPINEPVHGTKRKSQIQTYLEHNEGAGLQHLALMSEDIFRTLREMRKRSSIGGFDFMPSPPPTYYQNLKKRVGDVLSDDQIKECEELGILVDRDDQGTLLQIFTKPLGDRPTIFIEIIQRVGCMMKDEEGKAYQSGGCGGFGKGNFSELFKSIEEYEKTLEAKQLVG
Described as above. The following applies: substrate HPP varied between 10 and 400 μM. Type of test: biochemical. The method, then: Km, Vmax, and kcat values for different HPPD enzyme preparations and Ki, K1=Kon, and K−1=Koff for different HPPD inhibitors were determined using a HPLC assay for measurements of HPPD activity. […] All assays were started by the addition of HPPD enzyme to the assay mixture and stopped at a series of times between 0 and 240 s by addition of 200 μl of the reaction mixture to reaction assay tubes containing 20 μl 10% perchloric acid. Precipitated protein was pelleted by a 5 minute centrifugation at 10,000 g.
For Km and Vmax value determinations the initial rates of the HPPD reaction at different substrate concentrations were determined from plots of HGA formed versus time and fitted to the Michaelis-Menten equation for unireactant enzymes using the ID Business Solutions Ltd. (idbs.com) XLfit software suite.
as §3, §4

In test [5] the test system is transgenic soybean shoots (FMP38). Description: Soybean shoot greening under isoxaflutole selection. The settings on record: isoxaflutole as selection marker. Type of test: in vivo. The text has this: (§5) Soybean transformation is achieved using methods well known in the art, such as the one described using the Agrobacterium tumefaciens mediated transformation soybean half-seed explants described by Paz et al. (2006, Plant cell Rep. 25:206). Transformants were identified using Isoxaflutole as selection marker. The appearance of green shoots was observed, and documented as an indicator of tolerance to the herbicide isoxaflutole. […] Tolerant green shoots were transferred to rooting media or grafted. Rooted plantlets are transferred to the glasshouse after an acclimation period.

Another test has as its system wild-type soybean shoots. The description is as above. Type of test: in vivo. The following applies: same amount of isoxaflutole.
From the text: as §5

The target in test [6] is T1, Arabidopsis thaliana HPPD "SEQ ID No. 10". As to the kind of experiment: HPPD activity in presence of HPPD inhibitors (pI50, % inhibition). Type of test: biochemical.
From the text: as §1

Setting [7] is: substrate HPP varied between 10 and 400 μM.

Each structure is given as a SMILES string.

Consider `Cc1ccc(C(=O)COc2c(C(=O)c3ccc(Cl)c(C)c3Cl)c(C)nn2C)cc1` [Benzofenap], for which the percentage of inhibition in test [1] worked out at 31%.

With `COCCOCc1nc(C(F)(F)F)ccc1C(=O)C1=C(O)C2CCC(C2)C1=O` (stereo not drawn) [Bicyclopyrone, 4-hydroxy-3-[[2-[(2-methoxyethoxy)methyl]-6-(trifluoromethyl)-3-pyridinyl]carbonyl]bicyclo[3.2.1]oct-3-en-2-one], in the test with wild type tobacco plants, the “% of tolerant plant” value is on record as 0%, the “Class I (injury: 0-30%)” value was determined as 0 and the “Class II (injury: 31-100%)” value is 12. Besides, in test [2] (line 34), the “% of tolerant plant” value worked out at 17%, the “Class I (injury: 0-30%)” value amounted to 59 and the “Class II (injury: 31-100%)” value was found to be 6. For the same molecule, in test [2] (line 39), the “% of tolerant plant” value is on record as 46%, the “Class I (injury: 0-30%)” value was determined as 100 and the “Class II (injury: 31-100%)” value came out at 48. Further, in test [2] (line 197), the “% of tolerant plant” value stood at 15%, the “Class I (injury: 0-30%)” value was 89 and the “Class II (injury: 31-100%)” value is on record as 15. In test [1], the pI50 is listed as 5.0 and the percentage of inhibition was 19%.

As for `CS(=O)(=O)c1cc(C(F)(F)F)ccc1C(=O)C(C#N)C(=O)C1CC1` (stereo not drawn) [Diketonitrile, 2-cyano-3-cyclopropyl-1-(2-methylsulphonyl-4-trifluoromethylphenyl)-propane-1,3-dione], in test [3] (2 mM HPP), the Ki was 12 µM. For the same molecule, in test [1], the pI50 is reported as 5.5 and the percentage of inhibition is 62%.

As to `O=C(O)C(=O)Cc1ccc(O)cc1` [HPP, para-hydroxyphenylpyruvate], in test [4], the Michaelis-Menten constant (Km) came out at 6.3 µM and the Vmax is 1.2 µM. Further, in test [3] (setting [7]), the Km came to 5.1 µM and the Vmax was 1.2 µM.

As for `CS(=O)(=O)c1cc(C(F)(F)F)ccc1C(=O)c1cnoc1C1CC1` [Isoxaflutole, (5-cyclopropyl-4-isoxazolyl)[2-(methylsulfonyl)-4-(trifluoromethyl)phenyl]methanone], the “transgenic tested shoots showing normal greening” value in test [5] was found to be 0.6%. Further, in the test with wild-type soybean shoots, the bleaching of shoots result was “entirely bleached”.

Take `CS(=O)(=O)c1ccc(C(=O)C2C(=O)CCCC2=O)c([N+](=O)[O-])c1` [Mesotrione, 2-[4-(methylsulfonyl)-2-nitrobenzoyl]-1,3-cyclohexanedione]: in test [1], the pI50 was determined as 5.4 and the percentage of inhibition is given as 47%.

Turning to `Cc1nn(C)c(O)c1C(=O)c1ccc(C(F)(F)F)cc1S(C)(=O)=O` [Pyrasulfotole], the pI50 in test [1] amounted to 4.7; in test [6] (2 mM HPP, 3 minutes incubation), 5.4. Further, the percentage of inhibition in test [1] came to 16%; in test [6] (5.0 × 10^−6 M inhibitor, compared to activity in absence of inhibitor) it was 69%.

For the molecule `CS(=O)(=O)c1ccc(C(=O)C2C(=O)CCCC2=O)c(Cl)c1` [Sulcotrione, 2-[2-chloro-4-(methylsulfonyl)benzoyl]-1,3-cyclohexanedione], in test [1], the percentage of inhibition is recorded as 19%.

For `CS(=O)(=O)c1ccc(C(=O)C2C(=O)CCCC2=O)c(Cl)c1COCC1CCCO1` (stereo not drawn) [Tefuryltrione, 2-[2-chloro-4-(methylsulfonyl)-3-[[(tetrahydro-2-furanyl)methoxy]methyl]benzoyl]-1,3-cyclohexanedione], in test [1], the pI50 is given as 5.6 and the percentage of inhibition was determined as 72%.
